According to patent US7763596B2, “Selective glucocorticoid receptor agonists” (The University of Manchester, priority 2000, dated 2010):

Columns and labels:
Format in all cases: cell-based
[1] = biological target: T1, progesterone receptor (PRB) (Homo sapiens, UniProt P06401); test: Progestogen activity assay using progesterone receptor transactivation; details: 100 nM, AH3-luc reporter, COS7
T1 construct: expressed in transfected cells; host or cells: COS 7
T1 sequence (P06401 1-933): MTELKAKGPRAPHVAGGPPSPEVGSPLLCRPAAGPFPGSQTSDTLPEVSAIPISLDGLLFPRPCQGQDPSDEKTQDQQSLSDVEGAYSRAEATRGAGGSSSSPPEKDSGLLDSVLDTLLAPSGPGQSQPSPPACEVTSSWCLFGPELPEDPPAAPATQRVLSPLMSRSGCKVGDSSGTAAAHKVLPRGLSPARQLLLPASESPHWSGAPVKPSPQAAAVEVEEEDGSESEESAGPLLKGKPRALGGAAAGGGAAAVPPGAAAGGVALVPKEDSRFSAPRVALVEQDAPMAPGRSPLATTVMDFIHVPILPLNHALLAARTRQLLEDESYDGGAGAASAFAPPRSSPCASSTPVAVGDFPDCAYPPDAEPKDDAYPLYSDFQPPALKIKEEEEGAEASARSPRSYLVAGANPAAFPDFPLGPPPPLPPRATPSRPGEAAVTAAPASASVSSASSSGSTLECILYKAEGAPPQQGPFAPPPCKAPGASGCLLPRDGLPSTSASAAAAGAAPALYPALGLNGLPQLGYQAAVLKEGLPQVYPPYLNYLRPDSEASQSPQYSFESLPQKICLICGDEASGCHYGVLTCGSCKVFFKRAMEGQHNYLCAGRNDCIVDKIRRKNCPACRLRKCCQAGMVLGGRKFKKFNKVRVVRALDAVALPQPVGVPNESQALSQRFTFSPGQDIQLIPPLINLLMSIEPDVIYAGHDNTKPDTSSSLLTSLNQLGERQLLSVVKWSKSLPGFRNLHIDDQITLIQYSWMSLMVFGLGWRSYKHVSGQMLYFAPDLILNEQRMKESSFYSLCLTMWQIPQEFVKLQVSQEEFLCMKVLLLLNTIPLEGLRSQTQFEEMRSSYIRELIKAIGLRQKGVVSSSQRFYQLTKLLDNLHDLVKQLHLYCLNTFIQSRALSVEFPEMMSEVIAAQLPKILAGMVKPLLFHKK
From the text: As the GR LBD has strong homology with the PR LBD there is a chance that any of the tested steroids of FIGS. 1 and 2A that activate one of these receptors may also activate the other. The presence of illegitimate progestogen activity associated with the steroids of FIGS. 1 and 2A was examined using a transactivation assay with the PR instead of the GR.
The PR was artificially expressed in a cell line lacking endogenous PR and a GRE “driving” a luciferase reporter gene was used to measure ligand dependent activation.
COS7 cells were transfected with 1 μg pSEO-PRB and 3 μg AH3-Luc per 10 cm tissue culture dish. The cells were plated out in to 24 well plates after transfection and the steroids of FIGS. 1 and 2A were added immediately to generate a final concentration of 100 nM. After 18 hour incubation the cells were lysed and a luciferase assay was performed.

[2] = biological target: T2, GR ligand binding domain / SRC-1 (Homo sapiens, UniProt P04150); test: SRC-1 association assay by mammalian two-hybrid analysis; details: 100 nM
T2 construct: expressed in transfected cells
T2 sequence (P04150 524-758 limits assumed): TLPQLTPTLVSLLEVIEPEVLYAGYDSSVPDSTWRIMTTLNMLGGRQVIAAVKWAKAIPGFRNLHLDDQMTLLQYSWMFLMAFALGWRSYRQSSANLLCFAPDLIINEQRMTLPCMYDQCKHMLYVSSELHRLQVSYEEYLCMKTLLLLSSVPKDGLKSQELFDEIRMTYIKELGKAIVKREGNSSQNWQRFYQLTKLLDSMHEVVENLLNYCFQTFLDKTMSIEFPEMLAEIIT
From the text: SRC-1 is an important co-activator of GR action that associates with the GR in a ligand dependant manner. The ability of SRC-1 to associate with the GR in this manner can be used as a measure of potency of ligand mediated transactivation. To perform this assay plasmids that generated VP16-GR ligand binding domain (LBD) and GAL4-SRC-1 fusion proteins and a GAL4 binding luciferase reporter gene construct were transfected into in a cell line lacking GR and deficient in endogenous SRC-1. The GAL4-SRC-1 fusion protein could bind to specific sites upstream of the luciferase reporter gene construct. If the SRC-1 fusion protein associated with the ligand bound VP16-GRLBD fusion protein then the VP-16 activation domain augmented the luciferase gene expression.

glucocorticoid receptor [3] = biological target: T3, glucocorticoid receptor (Homo sapiens, UniProt P04150); test: Type II antagonist activity assay: competition of dexamethasone transactivation; design: expressed in transfected cells; host or cells: COS 7 (African green monkey kidney, deficient in endogenous GR); details: 1, 10, 100 nM; 1 nM dexamethasone
T3 sequence (P04150 1-777): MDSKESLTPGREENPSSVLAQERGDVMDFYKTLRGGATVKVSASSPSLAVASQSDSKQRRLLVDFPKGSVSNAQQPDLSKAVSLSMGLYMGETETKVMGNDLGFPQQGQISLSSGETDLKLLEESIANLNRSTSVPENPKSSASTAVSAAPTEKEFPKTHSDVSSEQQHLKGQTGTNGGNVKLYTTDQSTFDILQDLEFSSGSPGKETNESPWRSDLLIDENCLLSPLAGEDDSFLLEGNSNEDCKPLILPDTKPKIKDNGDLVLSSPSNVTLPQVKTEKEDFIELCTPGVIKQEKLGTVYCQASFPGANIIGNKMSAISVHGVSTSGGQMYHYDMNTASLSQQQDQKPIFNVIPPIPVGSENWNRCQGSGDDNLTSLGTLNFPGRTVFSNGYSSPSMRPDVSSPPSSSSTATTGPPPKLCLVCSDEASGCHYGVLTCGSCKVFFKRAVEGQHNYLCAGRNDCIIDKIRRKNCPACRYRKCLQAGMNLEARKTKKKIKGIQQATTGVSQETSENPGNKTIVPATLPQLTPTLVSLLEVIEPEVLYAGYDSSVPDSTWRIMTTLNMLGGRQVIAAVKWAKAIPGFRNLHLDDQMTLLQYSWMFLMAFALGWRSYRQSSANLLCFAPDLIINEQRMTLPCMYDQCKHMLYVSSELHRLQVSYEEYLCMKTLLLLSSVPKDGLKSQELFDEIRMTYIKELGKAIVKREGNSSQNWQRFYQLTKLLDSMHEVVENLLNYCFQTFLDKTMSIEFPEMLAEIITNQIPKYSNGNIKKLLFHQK
Description: A type II antagonist should be able to compete agonist activity. As an antagonist has no ability to transactivate, competition can be measured by inhibition of an agonist in a transactivation assay.
As with the standard transactivation assay previously described, the GR was artificially expressed in a cell line lacking endogenous GR and a GRE “driving” a luciferase reporter gene was used to measure ligand dependent activation. COS7 cells were transfected with 1 μg pcDNA3-GR and 3 μg AH3-Luc per 10 cm tissue culture dish. The cells were plated out in to 24 well plates after transfection and the steroids were added immediately. […] Certain steroids from FIG. 2A were added at the same concentration to all sample wells. After 18 hour incubation the cells were lysed and a luciferase assay was performed.

glucocorticoid receptor [4] = biological target: T3, glucocorticoid receptor; test: Transactivation assay using artificially expressed glucocorticoid receptor in the COS 7 monkey kidney cell line (GRE luciferase); design: expressed in transfected cells; host or cells: COS 7 (African green monkey kidney, deficient in endogenous GR); details: 1, 10, 10 and 500 nM; FIG. 5
Description: (§1) All transfections were performed using lipofectamine plus (Gibco BRL), according to the manufacturers' instructions, as previously described^1. Briefly, all cells were seeded at 5×10^5 per 10 cm tissue culture plate 18 hours before transfection, the next day the relevant plasmids were mixed with serum free medium and “Plus” reagent (Gibco BRL) and incubated for 15 mins, lipofectamine reagent was added and the mix was incubated for a further 15 mins, this mix was added to the cells on serum free medium in the 10 cm tissue culture plates and left for 3 hours, the cells were then trypsinised and divided into 24 well plates, the cells were left to recover overnight and were treated with steroid for 16 hours before harvest. All experiments were performed from one transfection in triplicate and on separate occasions with similar results.
(§2) The firefly luciferase gene catalyses the production of light from the substrate luciferin. When plasmid constructs containing this gene are transfected into cell lines the activity of the gene can be assessed by the intensity of the luminesence. The luciferase assay yields luminescence through an ATP-dependent oxidation of luciferin the amount of light produced can be measured by a luminometer and is a measure of gene activity (Davis, 1996). Light intensity was measured in a Luminometer (LB 9501, Berthold). The light intensity should be proportional to luciferase concentration in the range of 10^−16M (10 μg/L) to 10^−8M (1 mg/L). To measure the luminescence of the treated cells 150 μl of 1× reporter lysis buffer (RLB: 25 mM Tris phosphate pH7.8, 10 mM MgCl2, 15% Glycerol, 1% Triton, 1 mM EDTA) was added to the 24 well plates to lyse the cells and incubated at room temperature for 30 mins whilst being shaken. Then 100 μl of the room temperature cell extract were mixed with 100 μl of room temperature Luciferase Assay Reagent (LAR: 1 mM ATP, 0.3 mM D-Luciferin, 66% RLB). This reaction was mixed in a luminometer (LB 9501, Berthold) and the light produced was measured for a period of 5 seconds.
In this assay the GR was artificially expressed in a cell line lacking endogenous GR and a glucocorticoid response element (GRE) “driving” a luciferase reporter gene was used to measure ligand dependent activation.
COS7 cells were transfected with 1 μg pcDNA3-GR and 3 μg AH3-Luc per 10 cm tissue culture dish. The cells were plated out in to 24 well plates after transfection and the steroids were added immediately. After 18 hour incubation the cells were lysed and a luciferase assay was performed.

glucocorticoid receptor [5] = biological target: T3, glucocorticoid receptor; test: Transrepression assay using artificially expressed glucocorticoid receptor and P65 in the COS 7 cell line (NRE luciferase); design: expressed in transfected cells; host or cells: COS 7 (African green monkey kidney, deficient in endogenous GR); details: 1, 10 and 100 nM
Description: as §1, §2
To perform this assay the GR and p65 were artificially expressed in a cell line lacking GR and deficient in endogenous P65. The ability of P65 to activate an NFkB response element (NRE) “driving” a luciferase reporter gene could then be repressed by GR in a ligand dependent manner and, therefore, used to measure transrepression.
COS7 cells were transfected with 1 μg pcDNA3-GR and 3 μg NRE-Luc and 200 ng p65 per 10 cm tissue culture dish. The cells were plated out in to 24 well plates after transfection and left for 18 hours to recover before the steroids of FIGS. 1 and 2A were added. After another 18 hour incubation the cells were lysed and a luciferase assay was performed.

Row | Structure (SMILES) | PRB reporter gene activation [1] | other results
1 | CC(=O)[C@H]1CC[C@H]2[C@@H]3CCC4=CC(=O)CC[C@]4(C)[C@H]3CC[C@]12C [progesterone, reference compound] | strong induction of the reporter gene | –
2 | CNC(=O)C1(O)C(C)CC2C3CCC4=CC(=O)C=CC4(C)C3(F)C(O)CC21C (stereo not shown) [Compound M] | slightly increased reporter gene activation compared to that of dexamethasone | –
3 | CC1CC2C3CCC4=CC(=O)C=CC4(C)C3(F)C(O)CC2(C)C1(O)C(=O)COC(=O)Nc1ccc(F)cc1 (stereo not shown) [Compound S] | slightly increased reporter gene activation compared to that of dexamethasone | SRC-1 recruitment at the highest concentration tested [2]: significant response
4 | CC1CC2C3CCC4=CC(=O)C=CC4(C)C3(F)C(O)CC2(C)C1(O)C(=O)COC(=O)Nc1ccccc1 (stereo not shown) [Compound N] | slightly increased reporter gene activation compared to that of dexamethasone | –
5 | CC#C[C@]1(O)CC[C@H]2[C@@H]3CCC4=CC(=O)CCC4=C3[C@@H](c3ccc(N(C)C)cc3)C[C@@]21C [RU486, reference compound] | – | maximal repression of transactivation (glucocorticoid receptor [3]): ~50%
6 | CC1CC2C3CCC4=CC(=O)C=CC4(C)C3(F)C(O)CC2(C)C1(O)C(=O)NCc1ccccc1 (stereo not shown) [Compound K] | slightly increased reporter gene activation compared to that of dexamethasone | SRC-1 recruitment at the highest concentration tested [2]: significant response
7 | CCCN(CCC)C(=O)C1(O)C(C)CC2C3CCC4=CC(=O)C=CC4(C)C3(F)C(O)CC21C (stereo not shown) [P] | – | transactivation potential (luminescence) compared to dexamethasone, repeat experiment (glucocorticoid receptor [4]): “right shifted response” and a reduced maximum compared to dexamethasone; repression of P65 stimulation of an NFkB response element compared with dexamethasone (glucocorticoid receptor [5]): no effect at 1 and 10 nM with only a negligible repression at 100 nM
